Patent publication US8735150B2, “Methods for detecting embryonic stem cells, induced pluripotent stem cells, or cells undergoing reprogramming to produce induced pluripotent stem cells” (New York University, priority 2010, dated 2014)

Tests used:
differentiated mESC = assay: CDy1 staining of differentiated mESC after LIF removal; type: cell-based, mouse; details: three days culture without LIF
Excerpt: Morphologically distinguishable differentiated cells were observed after three days culture of mESC in the absence of LIF. As shown in the center panel, most of those cells were CDy1 negative, while some other cells that retained mESC morphology were stained by the dye.
On the other hand, removing the LIF from the culture media induced mESC differentiation and it was observed that some cells were morphologically distinguishable from mESC three days later. Most of the differentiated cells were not stained by CDy1, while some other cells with mESC morphology were stained by the dye showing a similar pattern with immunocytochemical staining by Oct4 antibody (FIG. 11).

mESC [1] = assay: FACS isolation of mESC from a MEF and mESC mixture stained with CDy1; Nanog RT-PCR and colony forming assay; type: cell-based, mouse
Method: MEFs and mESCs were cultured in 60 mm culture dishes for 24 hours in the presence of 500 nM of hit compounds including CDy1. The cells were harvested by trypsin treatment, washed with PBS, and resuspended in PBS. The fluorescence intensity of the cells was measured with flow cytometry (BD™ LSR II) with PE-Texas Red filter (excitation at 488 nm, emission at 615 nm). The dot plot images for each cell type were overlaid using FlowJo7 (Tree Star Inc., Ashland, Oreg.). For FACS, MEF and mESC were cultured in the same dish and the sample was prepared as described above for flow cytometry. The cells were gated into SSC^low CDy1^bright and SSC^high CDy1^dim regions and were collected using a FACS machine (BD FACS Aria™, BD Biosciences, Franklin Lakes, N.J.).
Total RNA was isolated from cells using RNeasy Mini Kit (QIAGEN Inc.) according to the manufacturer's instruction. cDNA was synthesized from 1 μg of total RNA using REVERTAID™ H Minus First strand cDNA Synthesis kit (Fermentas, Glen Burnie, Md.) and amplified by PCR using GOTAQ® Green Master Mix (Promega, Fitchburg, Wis.). The PCR conditions were as follows: 30 seconds denaturation at 95° C., 30 seconds annealing at 60° C., and a final 30 seconds of extension at 72° C. The sequences of primers used in this study are: Nanog (GenBank Accession No. NM_028016.1): sense 5′-[…]-3′ (SEQ ID NO:1), antisense 5′-[…]-3′ (SEQ ID NO:2); GAPDH (GenBank Accession No. XM—001473443.1): sense 5′-[…]-3′ (SEQ ID NO:3), antisense 5′-[…]-3′ (SEQ ID NO:4). The PCR products obtained after 25 cycles were resolved on 1% agarose gels, visualized by ethidium bromide staining, and the images were taken using a Gel Logic 200 Imaging System (Kodak, Rochester, N.Y.).
To evaluate the capability of CDy1 to isolate ESC from a mixed cell population, a MEF and mESC mixture was stained with CDy1, the mixed cells were gated into SSC^low CDy1^bright and SSC^high CDy1^dim regions, and 40,000 cells were collected by FACS from each gate for a stem cell marker Nanog gene expression analysis and colony forming assay. […]

mESC [2] = assay: Flow cytometry of mESC and MEF incubated separately with rosamine hit compounds (secondary screening); type: cell-based, mouse; details: 500 nM
Method: FIG. 5 is a table of flow cytometry results, which show the structure-cell selectivity relationship in CDy1 analogues. The ratios of mESC to MEF fluorescence mean values obtained from flow cytometry were used for cell selectivity analysis. The cells were incubated with 500 nM of each compound for one hour and washed with phosphate buffered saline (PBS) for flow cytometry.
MEFs and mESCs were cultured in 60 mm culture dishes for 24 hours in the presence of 500 nM of hit compounds including CDy1. The cells were harvested by trypsin treatment, washed with PBS, and resuspended in PBS. The fluorescence intensity of the cells was measured with flow cytometry (BD™ LSR II) with PE-Texas Red filter (excitation at 488 nm, emission at 615 nm). The dot plot images for each cell type were overlaid using FlowJo7 (Tree Star Inc., Ashland, Oreg.). […]
For a high-throughput screening, mESC and MEF feeder cells were incubated with 280 rosamine compounds at a concentration of 500 nM in 384-well microplates. After 0.5 hours, 24 hours, and 48 hours, TRITC fluorescence and bright field images were taken using an ImageXpress^MICRO imaging system. […] As a secondary screening, mESC and MEF were incubated separately with each of the hit compounds and these were analyzed using flow cytometry (see work flow set out in FIGS. 1A-1B; results shown in FIGS. 2A-2C and FIG. 3).

iPSC = assay: CDy1 staining of iPSC colonies generated from Oct4-GFP transgenic mouse MEF; type: cell-based
Method: The retroviral packaging cell, PlatE cell, was maintained in DMEM containing 10% FBS, 100 U/ml penicillin, 100 μg/ml streptomycin, 10 μg/mlblasticidin S, and 1 μg/ml puromycin. For the generation of retroviruses, 40 μg of each retroviral vector expressing each mouse Oct4, Sox2, Klf4, and c-Myc was transfected together using Lipofectamine™ 2000 (Invitrogen, Carlsbad, Calif.) into PlatE cells plated at a density of 8×10^6 cells/10 cm cell culture dish and cultured overnight in DMEM containing 10% FBS. Medium was changed five hours after transfection to normal maintenance medium and incubated further in a humidified atmosphere of 5% CO2 and 95% air at 37° C. Culture supernatant was harvested 48 hours after transfection, filtered through a 0.45 μm syringe filter, concentrated by using amicon ultra-15 Centrifugal filter units (Millipore, Billerica, Mass.), and stored at −80° C. until use. For reprogramming, MEFs prepared from E13.5 B6; CBA-Tg(Pou5f1-EGFP)2Mnn/J mouse (Jackson Laboratory, Bar Harbor, Me.) embryo were infected with retrovirus mixture eight hours later. Polybrene (Sigma-Aldrich, St. Louis, Mo.) was added at a concentration of 10 μg/ml to increase virus adsorption. Infected MEFs were harvested 48 hours later by trypsinization and plated onto mytomycin C treated MEF feeder cells. The cells were maintained in mESC culture medium that was changed every day until designated time points.
The reprogramming was performed in a 6-well culture dish by retroviral introduction of four transcriptions factors: Oct4, Sox2, Klf4, and c-Myc (Takahashi et al., “Induction of Pluripotent Stem Cells from Mouse Embryonic and Adult Fibroblast Cultures by Defined Factors,” Cell, 126(4):663-676 (2006), which is hereby incorporated by reference in its entirety). iPSC generation was verified by GFP expression, alkaline phosphatase assay, and immunostaining of SSEA-1 at 17 days post infection (“dpi”). […] When the 155 colonies grown in 6-well plate cells were treated with CDy1 at 17 dpi, 101 colonies (65%) were both CDy1 and GFP positive, 26 (17%) were CDy1-only positive, 4 (3%) were GFP-only positive and 24 (15%) were negative both for CDy1 and GFP, despite the fact that the morphology of the colonies was indistinguishable (FIG. 9).
In a cell culture treated with CDy1 at an earlier time point of iPSC generation (10 dpi), increasing numbers of CDy1-stained colonies started to show GFP signal during the following days (FIG. 10A). To perform a more systematic analysis, the cells were stained with CDy1 at 2 dpi (i.e., when iPSC was not distinguishable by any means) and the CDy1 and GFP signals were tracked by daily acquisition of cell images using an ImageXpress^MICRO system. At 10 dpi, when small colonies started to appear, 342 CDy1-positive but GFP-negative colonies were selected and their GFP expression was followed until 25 dpi. An increasing number of colonies started to express GFP during this period, and 338 (99%) out of the 342 tracked colonies were GFP-positive at 25 dpi (FIG. 10B).

[3] = 40,000 cells collected by FACS, three days culture

differences in number of GFP-positive colonies or cell morphology compared to untreated iPSC (iPSC; 10 to 25 dpi): no detectable differences
Compound: CCCCN(CCCC)c1ccc2c(-c3cccc(CN4CCOCC4)c3)c3ccc(=N)cc-3oc2c1 [CDy1]
staining of differentiated cells (differentiated mESC): not stained
number of colonies from SSChigh CDy1dim cells (mESC [1]; [3]): 6
number of colonies from SSClow CDy1bright cells (mESC [1]; [3]): 604
Nanog expression in SSClow CDy1bright cells versus SSChigh CDy1dim cells (mESC [1]; RT-PCR): much higher
higher fluorescence intensity in mESC than in MEF (ratio of mESC to MEF fluorescence mean values) (mESC [2]): 12.2 fold
mESC selectivity (in words) (mESC [2]; mESC vs MEF): most selective for mESCs among the 20 hit compounds
earliest CDy1 staining of the cells that expressed GFP at 12 dpi (iPSC): 6 dpi
selective staining of iPSC colony (iPSC; 17 dpi): selectively stained the iPSC colony
colonies CDy1-only positive (number) (iPSC; 17 dpi, of 155 colonies): 26
colonies CDy1-only positive (percent) (iPSC; 17 dpi, of 155 colonies): 17%
colonies GFP-only positive (number) (iPSC; 17 dpi, of 155 colonies): 4
colonies GFP-only positive (percent) (iPSC; 17 dpi, of 155 colonies): 3%
colonies both CDy1 and GFP positive (number) (iPSC; 17 dpi, of 155 colonies): 101
